Results from patent publication US20160257749A1, “ANTI-TIM3 ANTIBODIES AND METHODS OF USE” (Hoffmann-La Roche, Inc., priority 2014, published 2016).

Legend:
Pfeiffer cells [1] = assay: Cytotoxic activity of sortase coupled Fab-PE24 constructs, CellTiter-Glo; format: cell-based, human
Experimental: (§1) Treatment ranges from 50 μg/ml to 8 μg/ml in triplicate. Cycloheximide was used as positive control.

RPMI-8226 cells [2] = assay: as above; format: cell-based, human
Experimental: as §1

primary CD34+ AML cells = assay: Cytotoxic activity of Fab-PE24 constructs on primary AML cells from relapsed/refractory patients; format: cell-based, human; conditions: 3 days at 37° C.
Text: CD34+ cells from peripheral blood of relapsed/refractory patients were obtained from AllCells, LLC, Alameda, Calif.
Cycloheximide was used as positive control.

Pfeiffer cells [3] = assay: Cytotoxic activity of Fab-PE24 construct vs total IgG-Amatoxin conjugate, CellTiter-Glo; format: cell-based, human
Experimental: as §1

recTIM-3 CHO cells = assay: Cytotoxic activity, sandwich format with anti-mouse Fc Fab-PE24, CellTiter-Glo; format: cell-based; conditions: Cricetulus griseus, 72 h, full length mouse Fcγ versions + mouse Fcγ specific Fab-PE 24 (10 μg/ml), 3 days at 37° C.
Text: (§2) Rel. Inhibition [%]=(1−(Esample−Enegative control)/(Epositive control−Enegative control))*100

Pfeiffer cells [4] = assay: Cytotoxic activity, human IgG1 format with anti-human Fc Fab-PE24, CellTiter-Glo; format: cell-based; conditions: full length human IgG1 format + human Fcγ specific Fab-PE 24 (10 μg/ml), 5 days at 37° C.
Text: as §2

RPMI-8226 cells [5] = assay: as above; format: cell-based; conditions: full length human IgG1 format + human Fcγ specific Fab-PE 24 (10 μg/ml), 5 days at 37° C.
Text: as §2

TF-1 = assay: Cytotoxic activity of Fab-PE24 constructs, CellTiter-Glo; format: cell-based, human; conditions: 4 days at 37° C.
Experimental: as §1

RPMI-8226 = assay: as above; format: cell-based, human; conditions: 4 days at 37° C.
Experimental: as §1

CMK = assay: as above; format: cell-based, human; conditions: 4 days at 37° C.
Experimental: as §1

MOLM-13 = assay: as above; format: cell-based, human; conditions: 4 days at 37° C.
Experimental: as §1

Karpas-299 = assay: as above; format: cell-based, human; conditions: 4 days at 37° C.
Experimental: as §1

RNA-polymerase II = RNA-polymerase II (Homo sapiens, UniProt P24928+P30876); conditions: read-out: KD of the complex between amanitin and RNA-polymerase II; cited from earlier work

| Molecule | Pfeiffer cells Max. killing (Pfeiffer cells [1]) | RPMI-8226 cells Max. killing (RPMI-8226 cells [2]) | D1; AML CD34+ PB0136 cells Max. killing (primary CD34+ AML cells) | D2; AML CD34+ PB0142 cells Max. killing (primary CD34+ AML cells) | D3; AML CD34+ PB0135 cells Max. killing (primary CD34+ AML cells) | D4; AML CD34+ PB0193 cells Max. killing (primary CD34+ AML cells) | Pfeiffer cells Max. killing (Pfeiffer cells [3]) | IC50 (recTIM-3 CHO cells) [nM] | Pfeiffer cells Max. killing (Pfeiffer cells [4]) | RPMI-8226 cells Max. killing (RPMI-8226 cells [5]) | TF-1 Max. killing (TF-1) [%] | RPMI-8226 Max. killing (RPMI-8226) [%] | CMK Max. killing (CMK) [%] | MOLM-13 Max. killing (MOLM-13) [%] | Karpas-299 Max. killing (Karpas-299) [%] | Kd (RNA-polymerase II) [nM] |
| --- | --- | --- | --- | --- | --- | --- | --- | --- | --- | --- | --- | --- | --- | --- | --- | --- |
| C[C@@H]1C[C@@H]([C@H](O)CC2CC(=O)NC(=O)C2)C(=O)[C@@H](C)C1 [Cycloheximide, reference compound] | 100 [%] | 100 [%] | 100 [%] | 100 [%] | 100 [%] | 100 [%] | 100 [%] | 135 | 100 [%] | 100 [%] | 100 | 100 | 100 | 100 | 100 |  |
| amanitin |  |  |  |  |  |  |  |  |  |  |  |  |  |  |  | 3 |
